Data from patent publication US20260007133A1, “HERBICIDAL COMPOSITION COMPRISING AZINE COMPOUNDS” (BASF SE, priority 2022, published 2026).
Several values for one entry are separate records, joined by “and”; a condition that tells them apart may be missing. Equal entries are not always repeated. Where two headings read alike, the source gives them in different places.

Experiments:
Format in all cases: in vivo
[1] = test system: Abutilon theophrasti; experiment: Greenhouse pre-emergence (PRE) herbicidal test on ABUTH; conditions: Abutilon theophrasti, pre-emergence, PRE; for pest or weed control at 2 g/ha: I-3 solo 2 gai/ha
In short: (§1)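 Seeds were sown per species in pots of loamy sand with about 3.0% humus, treated pre-emergence, watered and hooded until rooted. Plants grew at 10-25° C or 20-35° C depending on species. Damage was scored 0-100 (100 = no emergence or above-ground parts destroyed) at 20 DAT.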

[2] = test system: Geranium pusillum; experiment: Greenhouse pre-emergence (PRE) herbicidal test on GERPU; conditions: Geranium pusillum, pre-emergence, GERPU PRE
In short: (§2)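 Seeds sown per species in pots of loamy sand with approx. 3.0% humus; compounds suspended or emulsified in water were sprayed via fine nozzles directly after sowing. Pots were watered and hooded until rooted, held at 10-25° C. or 20-35° C. by species, and scored 0–100 (100 = no emergence/complete destruction) 20 DAT.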

[3] = test system: Abutilon theophrasti; experiment: Greenhouse post-emergence (POST) herbicidal test on ABUTH; conditions: Abutilon theophrasti, post-emergence; for pest or weed control at 2 g/ha: I-3 solo 2 gai/ha
In short: (§3)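 Greenhouse weeds, raised in pots of humus-containing loamy sand, receive a water-based spray of the actives once 3 to 15 cm tall. Damage is rated visually from 0 (none) to 100 (above-ground parts destroyed) 20 days after treatment.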

[4] = test system: Amaranthus retroflexus; experiment: Greenhouse post-emergence (POST) herbicidal test on AMARE; conditions: Amaranthus retroflexus, post-emergence
In short: as §3

[5] = test system: Commelina benghalensis; experiment: Greenhouse pre-emergence (PRE) herbicidal test on COMBE; conditions: Commelina benghalensis, pre-emergence; for inhibition at 4 g/ha: use rate 4 gai/ha
In short: as §1

[6] = test system: Brachiaria decumbens; experiment: Greenhouse pre-emergence (PRE) herbicidal test on BRADC; conditions: Urochloa decumbens, BRADC PRE, use rate 2 gai/ha
In short: as §2

[7] = test system: Digitaria sanguinalis; experiment: Greenhouse post-emergence (POST) herbicidal test on DIGSA
In short: as §3

## COc1c(Cl)cc(F)c(F)c1Nc1nc(N)nc(C(C)(C)F)n1 [Compound I-3]
[1]; 432 h, ABUTH, 18 DAT
  pest or weed control at 2 g/ha: 70%
[1]; 480 h, 8 gai/ha, 20 DAT
  pest or weed control at 8 g/ha: 70%
[1]; 480 h, ABUTH, 2 gai/ha, 20 DAT, read-out: % activity solo application
  inhibition at 2 g/ha: 25%
[1]; 480 h, ABUTH, 8 gai/ha, 20 DAT, read-out: % activity solo application
  inhibition at 8 g/ha: 80%
[1]; 480 h, ABUTH, 20 DAT
  pest or weed control at 2 g/ha: 10%
[1]; 480 h, ABUTH, use rate 2 gai/ha, 20 DAT, read-out: solo application % activity
  inhibition at 2 g/ha: 25%
[1]; 480 h, ABUTH, use rate 8 gai/ha, 20 DAT, read-out: % activity
  inhibition at 8 g/ha: 70%
[1]; 480 h, ABUTH, use rate 8 gai/ha, 20 DAT, read-out: solo application % activity
  inhibition at 8 g/ha: 85%
[1]; 480 h, use rate 2 gai/ha, 20 DAT, read-out: % activity
  inhibition at 2 g/ha: 10%
[1]; ABUTH, use rate 2 gai/ha, read-out: % activity
  inhibition at 2 g/ha: 65%
[1]; ABUTH, use rate 4 gai/ha
  inhibition at 4 g/ha: 65%
[2]; use rate 2 gai/ha
  inhibition at 2 g/ha: 0%
[2]; use rate 8 gai/ha
  inhibition at 8 g/ha: 15%
[3]; 432 h, POST, ABUTH, 18 DAT
  pest or weed control at 2 g/ha: 35%
[3]; 432 h, POST, ABUTH, I-3 solo 8 gai/ha, 18 DAT
  pest or weed control at 8 g/ha: 65%
[3]; 480 h, POST, 8 gai/ha, 20 DAT
  pest or weed control at 8 g/ha: 50%
[3]; 480 h, POST, ABUTH, 2 gai/ha, 20 DAT, read-out: % activity solo application
  inhibition at 2 g/ha: 10%
[3]; 480 h, POST, ABUTH, 20 DAT
  pest or weed control at 2 g/ha: 50%
[3]; 480 h, POST, ABUTH, I-3 solo 8 gai/ha, 20 DAT
  pest or weed control at 8 g/ha: 80%
[3]; 480 h, POST, ABUTH, use rate 2 gai/ha, 20 DAT, read-out: solo application % activity
  inhibition at 2 g/ha: 10%
[3]; 480 h, POST, ABUTH, use rate 4 gai/ha, 20 DAT
  inhibition at 4 g/ha: 10%
[3]; 480 h, POST, ABUTH, use rate 16 gai/ha, 20 DAT
  inhibition at 16 g/ha: 50%
[3]; ABUTH POST, use rate 2 gai/ha, read-out: % activity
  inhibition at 2 g/ha: 20%
[3]; ABUTH POST, use rate 8 gai/ha, read-out: % activity
  inhibition at 8 g/ha: 85%
[3]; POST, ABUTH, use rate 2 gai/ha, read-out: % activity
  inhibition at 2 g/ha: 30%
[4]; 432 h, POST, AMARE, I-3 solo 8 gai/ha, 18 DAT
  pest or weed control at 8 g/ha: 90%
[4]; 480 h, POST, AMARE, 2 gai/ha, 20 DAT, read-out: % activity solo application
  inhibition at 2 g/ha: 45%
[4]; 480 h, POST, AMARE, use rate 4 gai/ha, 20 DAT
  inhibition at 4 g/ha: 50%
[4]; AMARE POST, use rate 2 gai/ha, read-out: % activity
  inhibition at 2 g/ha: 60%
[4]; AMARE POST, use rate 8 gai/ha, read-out: % activity
  inhibition at 8 g/ha: 75%
[4]; POST, AMARE, use rate 2 gai/ha, read-out: % activity
  inhibition at 2 g/ha: 70%
[5]; 432 h, PRE, COMBE, I-3 solo 2 gai/ha, 18 DAT, read-out: % activity
  pest or weed control at 2 g/ha: 50%
[5]; 480 h, COMBE PRE, 20 DAT, use rate 2 gai/ha, read-out: % activity
  inhibition at 2 g/ha: 0%
[5]; 480 h, COMBE PRE, 20 DAT, use rate 8 gai/ha, read-out: % activity
  inhibition at 8 g/ha: 75%
[5]; 480 h, PRE, 8 gai/ha, 20 DAT
  pest or weed control at 8 g/ha: 75%
[5]; 480 h, PRE, COMBE, 2 gai/ha, 20 DAT, read-out: % activity solo application
  inhibition at 2 g/ha: 10%
[5]; 480 h, PRE, COMBE, 8 gai/ha, 20 DAT, read-out: % activity solo application
  inhibition at 8 g/ha: 10%
[5]; 480 h, PRE, COMBE, use rate 2 gai/ha, 20 DAT, read-out: solo application % activity
  inhibition at 2 g/ha: 10%
[5]; 480 h, PRE, COMBE, 20 DAT
  inhibition at 4 g/ha: 35%
[5]; 480 h, PRE, COMBE, use rate 8 gai/ha, 20 DAT, read-out: % activity
  inhibition at 8 g/ha: 70%
[5]; 480 h, PRE, COMBE, use rate 8 gai/ha, 20 DAT, read-out: solo application % activity
  inhibition at 8 g/ha: 10%
[5]; 480 h, PRE, use rate 2 gai/ha, 20 DAT, read-out: % activity
  inhibition at 2 g/ha: 10%
[5]; 480 h, PRE, use rate 8 gai/ha, 20 DAT, read-out: % activity
  inhibition at 8 g/ha: 35%
[5]; COMBE PRE, use rate 8 gai/ha, read-out: % activity
  inhibition at 8 g/ha: 60%
[5]; PRE, COMBE, use rate 2 gai/ha, read-out: % activity
  inhibition at 2 g/ha: 0%
[5]; PRE, COMBE
  inhibition at 4 g/ha: 25%
[5]; PRE, COMBE, use rate 8 gai/ha, read-out: % activity
  inhibition at 8 g/ha: 75%
[6]
  inhibition at 2 g/ha: 30%
[7]; DIGSA POST, use rate 2 gai/ha
  % activity: 0%
[7]; DIGSA POST, use rate 8 gai/ha
  % activity: 75% and 50%
[7]; Digitaria sanguinalis, post-emergence, 432 h, POST, DIGSA, 2 gai/ha, 18 DAT, read-out: % activity solo application
  inhibition at 2 g/ha: 10%
[7]; Digitaria sanguinalis, post-emergence, 432 h, POST, DIGSA, 8 gai/ha, 18 DAT, read-out: % activity solo application
  inhibition at 8 g/ha: 10%
[7]; Digitaria sanguinalis, post-emergence, 432 h, POST, DIGSA, I-3 solo 2 gai/ha, 18 DAT
  pest or weed control at 2 g/ha: 10%
[7]; Digitaria sanguinalis, post-emergence, 432 h, POST, DIGSA, I-3 solo 8 gai/ha, 18 DAT
  pest or weed control at 8 g/ha: 10%
[7]; Digitaria sanguinalis, post-emergence, 480 h, DIGSA POST, 20 DAT, use rate 8 gai/ha, read-out: % activity
  inhibition at 8 g/ha: 40%
